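96-well plates; 48 h exposure; 5 concentrations. Endpoints by linear interpolation between flanking doses. Not reached: highest tested concentration assigned. TGI denotes the concentration required for complete inhibition of growth.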
What was measured:
Assay in all cases: NCI-60 cell line screen, 48 h
COLO 205 colon = test system: COLO 205 colon
SK-MEL-28 melanoma = test system: SK-MEL-28 melanoma
HOP-62 NSCLC = test system: HOP-62 NSCLC
SK-MEL-2 melanoma = test system: SK-MEL-2 melanoma
M14 melanoma = test system: M14 melanoma
IGROV1 ovarian = test system: IGROV1 ovarian
786-0 renal = test system: 786-0 renal
NCI/ADR-RES ovarian = test system: NCI/ADR-RES ovarian
MDA-MB-231 breast = test system: MDA-MB-231 breast
CCRF-CEM leukemia = test system: CCRF-CEM leukemia
MCF7 breast = test system: MCF7 breast
CAKI-1 renal = test system: CAKI-1 renal
A498 renal = test system: A498 renal
HCT-15 colon = test system: HCT-15 colon
OVCAR-5 ovarian = test system: OVCAR-5 ovarian
NCI-H460 lung = test system: NCI-H460 lung
EKVX NSCLC = test system: EKVX NSCLC

## C[C@H](C(=O)N1C(=O)O[C@@H](c2ccccc2)[C@H]1C)[C@H](c1ccccc1)N(Cc1ccccc1)OC(=O)c1ccccc1
COLO 205 colon
  TGI: > 100 µM
SK-MEL-28 melanoma
  TGI: > 100 µM
HOP-62 NSCLC
  TGI: 52.1 µM
SK-MEL-2 melanoma
  TGI: 73.7 µM
M14 melanoma
  TGI: > 100 µM
IGROV1 ovarian
  TGI: > 100 µM
786-0 renal
  TGI: > 100 µM
NCI/ADR-RES ovarian
  TGI: > 100 µM
MDA-MB-231 breast
  TGI: > 100 µM
CCRF-CEM leukemia
  TGI: > 100 µM
MCF7 breast
  TGI: > 100 µM
CAKI-1 renal
  TGI: > 100 µM
A498 renal
  TGI: > 100 µM
HCT-15 colon
  TGI: > 100 µM
OVCAR-5 ovarian
  TGI: > 100 µM
NCI-H460 lung
  TGI: > 100 µM

## NC(=O)c1nnc2cc(F)c(F)cc2c1N
COLO 205 colon
  TGI: > 100 µM
HOP-62 NSCLC
  TGI: 39.6 µM
SK-MEL-2 melanoma
  TGI: 38.5 µM
M14 melanoma
  TGI: > 100 µM
IGROV1 ovarian
  TGI: > 100 µM
786-0 renal
  TGI: > 100 µM
NCI/ADR-RES ovarian
  TGI: > 100 µM
MDA-MB-231 breast
  TGI: > 100 µM
CCRF-CEM leukemia
  TGI: > 100 µM
MCF7 breast
  TGI: > 100 µM
CAKI-1 renal
  TGI: > 100 µM
A498 renal
  TGI: > 100 µM
HCT-15 colon
  TGI: > 100 µM
EKVX NSCLC
  TGI: > 100 µM
OVCAR-5 ovarian
  TGI: > 100 µM
NCI-H460 lung
  TGI: > 100 µM

## CCOC(=O)c1c(N2CCOCC2)[nH]c(=O)c(C(c2ccc(N(C)C)cc2)c2c(O)c(C(=O)OCC)c(N3CCOCC3)[nH]c2=O)c1O
COLO 205 colon
  TGI: > 100 µM
SK-MEL-28 melanoma
  TGI: > 100 µM
HOP-62 NSCLC
  TGI: > 100 µM
SK-MEL-2 melanoma
  TGI: > 100 µM
M14 melanoma
  TGI: > 100 µM
786-0 renal
  TGI: > 100 µM
NCI/ADR-RES ovarian
  TGI: > 100 µM
MDA-MB-231 breast
  TGI: > 100 µM
CCRF-CEM leukemia
  TGI: > 100 µM
MCF7 breast
  TGI: > 100 µM
CAKI-1 renal
  TGI: > 100 µM
A498 renal
  TGI: > 100 µM
HCT-15 colon
  TGI: > 100 µM
EKVX NSCLC
  TGI: > 100 µM
OVCAR-5 ovarian
  TGI: > 100 µM
NCI-H460 lung
  TGI: > 100 µM

## CCCCCCCCCCCCCC/C(=C/OCC[N+](C)(C)C)OC(C)=O (tested in a mixture with another compound)
COLO 205 colon
  TGI: 5.08 µM
SK-MEL-28 melanoma
  TGI: 20.4 µM
HOP-62 NSCLC
  TGI: 5.8 µM
M14 melanoma
  TGI: 7.12 µM
IGROV1 ovarian
  TGI: 3.96 µM
786-0 renal
  TGI: 2.34 µM
NCI/ADR-RES ovarian
  TGI: 44.2 µM
MDA-MB-231 breast
  TGI: 4.83 µM
CCRF-CEM leukemia
  TGI: 3.67 µM
MCF7 breast
  TGI: 10.3 µM
CAKI-1 renal
  TGI: 4.04 µM
A498 renal
  TGI: 6.99 µM
HCT-15 colon
  TGI: 19.5 µM
EKVX NSCLC
  TGI: 10.7 µM
OVCAR-5 ovarian
  TGI: 13.2 µM

## COC(=O)c1ccc(/C=N/c2cc(C)nn2-c2ccccc2)cc1
COLO 205 colon
  TGI: 43 µM
SK-MEL-28 melanoma
  TGI: > 100 µM
HOP-62 NSCLC
  TGI: > 100 µM
SK-MEL-2 melanoma
  TGI: > 100 µM
M14 melanoma
  TGI: > 100 µM
IGROV1 ovarian
  TGI: > 100 µM
786-0 renal
  TGI: > 100 µM
NCI/ADR-RES ovarian
  TGI: > 100 µM
MDA-MB-231 breast
  TGI: > 100 µM
CCRF-CEM leukemia
  TGI: > 100 µM
MCF7 breast
  TGI: > 100 µM
CAKI-1 renal
  TGI: > 100 µM
HCT-15 colon
  TGI: > 100 µM
EKVX NSCLC
  TGI: > 100 µM
OVCAR-5 ovarian
  TGI: > 100 µM
NCI-H460 lung
  TGI: 37.3 µM

## N#C/C(=C\N1CCNC1=S)C(=O)c1ccc2ccccc2c1
COLO 205 colon
  TGI: > 100 µM
SK-MEL-28 melanoma
  TGI: > 100 µM
HOP-62 NSCLC
  TGI: > 100 µM
SK-MEL-2 melanoma
  TGI: > 100 µM
M14 melanoma
  TGI: > 100 µM
IGROV1 ovarian
  TGI: > 100 µM
786-0 renal
  TGI: > 100 µM
NCI/ADR-RES ovarian
  TGI: > 100 µM
MDA-MB-231 breast
  TGI: > 100 µM
MCF7 breast
  TGI: > 100 µM
CAKI-1 renal
  TGI: > 100 µM
A498 renal
  TGI: > 100 µM
HCT-15 colon
  TGI: > 100 µM
EKVX NSCLC
  TGI: > 100 µM
OVCAR-5 ovarian
  TGI: > 100 µM
NCI-H460 lung
  TGI: > 100 µM

## c1csc(-c2cc(-c3ccsc3)c(-c3cccs3)s2)c1
COLO 205 colon
  TGI: 82.5 µM
SK-MEL-28 melanoma
  TGI: > 100 µM
HOP-62 NSCLC
  TGI: > 100 µM
M14 melanoma
  TGI: > 100 µM
786-0 renal
  TGI: > 100 µM
NCI/ADR-RES ovarian
  TGI: > 100 µM
MDA-MB-231 breast
  TGI: > 100 µM
CCRF-CEM leukemia
  TGI: > 100 µM
MCF7 breast
  TGI: 89.8 µM
CAKI-1 renal
  TGI: > 100 µM
A498 renal
  TGI: > 100 µM
HCT-15 colon
  TGI: > 100 µM
EKVX NSCLC
  TGI: > 100 µM
OVCAR-5 ovarian
  TGI: > 100 µM
NCI-H460 lung
  TGI: > 100 µM

## Cn1cc(C=C(C#N)C#N)c(=O)n(C)c1=O
COLO 205 colon
  TGI: > 100 µM
SK-MEL-28 melanoma
  TGI: > 100 µM
HOP-62 NSCLC
  TGI: > 100 µM
SK-MEL-2 melanoma
  TGI: > 100 µM
M14 melanoma
  TGI: > 100 µM
IGROV1 ovarian
  TGI: > 100 µM
786-0 renal
  TGI: > 100 µM
NCI/ADR-RES ovarian
  TGI: > 100 µM
MDA-MB-231 breast
  TGI: > 100 µM
MCF7 breast
  TGI: > 100 µM
CAKI-1 renal
  TGI: > 100 µM
A498 renal
  TGI: > 100 µM
HCT-15 colon
  TGI: > 100 µM
EKVX NSCLC
  TGI: > 100 µM
OVCAR-5 ovarian
  TGI: > 100 µM
NCI-H460 lung
  TGI: > 100 µM
